The source of these data is ChEMBL document CHEMBL5036336, “Structure-Guided Optimization Provides a Series of TTK Protein Inhibitors with Potent Antitumor Activity” (J Med Chem, 2021).

One data set addresses Cytochrome P450 3A4 (Homo sapiens, UniProt P08684). The experiment in a line: Inhibition of CYP3A4 in human liver microsomes using […] as substrate incubated for 5 mins in presence of NADPH by LC-MS/MS analysis. The format is ADME. For orientation: Liver microsomes are a subcellular fraction often used to study metabolism.
The test system of another data set is CAL-51. The experiment in a line: Antiproliferative activity against human CAL-51 cells assessed as inhibition of cell proliferation measured after 3 days by Cell Titer-Glo luminescence based assay. The format is functional. The conditions noted are these: CAL-51, 72 h.
In data set [1] the target is T1, Dual specificity protein kinase TTK (Homo sapiens, UniProt P33981).
T1 sequence (P33981 whole entry): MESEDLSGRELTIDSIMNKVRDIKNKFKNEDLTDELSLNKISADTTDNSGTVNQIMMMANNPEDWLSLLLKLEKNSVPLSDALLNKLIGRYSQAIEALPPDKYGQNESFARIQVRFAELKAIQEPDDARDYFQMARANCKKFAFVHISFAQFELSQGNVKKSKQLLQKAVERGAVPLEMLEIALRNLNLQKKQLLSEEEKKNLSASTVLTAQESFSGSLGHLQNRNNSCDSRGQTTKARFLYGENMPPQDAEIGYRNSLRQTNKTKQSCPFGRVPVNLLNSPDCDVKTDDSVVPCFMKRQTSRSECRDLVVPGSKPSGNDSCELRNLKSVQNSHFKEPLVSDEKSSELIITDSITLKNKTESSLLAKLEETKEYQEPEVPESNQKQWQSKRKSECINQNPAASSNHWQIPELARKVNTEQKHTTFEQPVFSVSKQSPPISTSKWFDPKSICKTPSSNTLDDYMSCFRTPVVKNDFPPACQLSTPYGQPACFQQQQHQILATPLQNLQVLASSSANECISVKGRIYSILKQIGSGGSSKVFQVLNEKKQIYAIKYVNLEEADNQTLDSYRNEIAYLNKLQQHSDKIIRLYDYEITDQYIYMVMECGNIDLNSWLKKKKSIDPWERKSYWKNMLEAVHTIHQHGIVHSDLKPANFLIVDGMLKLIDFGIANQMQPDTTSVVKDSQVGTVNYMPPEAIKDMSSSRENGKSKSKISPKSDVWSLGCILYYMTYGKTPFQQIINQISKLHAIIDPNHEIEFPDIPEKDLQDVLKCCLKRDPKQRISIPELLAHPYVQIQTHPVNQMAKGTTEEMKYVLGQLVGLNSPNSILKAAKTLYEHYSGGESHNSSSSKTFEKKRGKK
Briefly: Displacement of kinase tracer 236 from TTK (unknown origin) by LanthaScreen Eu kinase binding assay. In general terms: TR-FRET usually uses a lanthanide donor and a delayed reading to cut background.

A short description of data set [2]: Clearance in rat at 2 mg/kg, iv. The format is ADME, organism-based. The conditions noted are these: in vivo.
The nature of data set [3]: Kinetic solubility of compound in PBS at pH 7.4 at 200 uM incubated for 24 hrs by UPLC/MS analysis. The format is physicochemical. The conditions noted are these: read-out: Kinetic_solubility.

The term IC50 denotes the point on the concentration scale where inhibition reaches its midpoint. As a reminder, the clearance is a measure of how efficiently the substance is removed, as volume per time. Higher therefore signals efficient removal.

The structures appear in SMILES notation. ≈ marks a conversion by molar mass, not a printed value. Bounds are passed on as bounds.

Sequence of Cytochrome P450 3A4 (P08684 whole entry): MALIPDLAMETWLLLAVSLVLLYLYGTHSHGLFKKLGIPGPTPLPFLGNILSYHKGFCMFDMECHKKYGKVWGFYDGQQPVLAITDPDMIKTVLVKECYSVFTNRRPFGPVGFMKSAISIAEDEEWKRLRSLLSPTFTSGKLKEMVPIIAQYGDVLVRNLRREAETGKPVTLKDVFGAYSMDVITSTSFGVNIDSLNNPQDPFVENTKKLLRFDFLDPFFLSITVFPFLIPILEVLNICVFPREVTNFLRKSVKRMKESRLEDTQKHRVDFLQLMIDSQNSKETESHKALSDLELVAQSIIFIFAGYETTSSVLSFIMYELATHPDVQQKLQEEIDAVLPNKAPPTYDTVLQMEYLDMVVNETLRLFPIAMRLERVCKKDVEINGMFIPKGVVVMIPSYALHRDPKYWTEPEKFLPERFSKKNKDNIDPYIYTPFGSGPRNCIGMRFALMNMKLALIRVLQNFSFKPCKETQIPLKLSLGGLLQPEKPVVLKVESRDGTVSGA

As to `COc1cc(N2CCN(C3COC3)CC2)ccc1Nc1nc(O[C@H]2CCOC(C)(C)C2)c2cc[nH]c2n1`, the IC50 at Cytochrome P450 3A4 was more than 5000 nM.
For `CCc1cccc(CC)c1NC(=O)c1cc(-c2nc(Nc3ccc(N4CCC(O)(CN5CCN(C)CC5)CC4)cc3OC)nc3[nH]ccc23)n(C)n1`, the IC50 in the data set with CAL-51 is 19 nM; on Cytochrome P450 3A4, more than 5000 nM; in data set [1], 2 nM. In addition, in data set [2], the clearance stood at 56 mL/min/kg. Moreover, the solubility kinetic at 24 h, 200 µM in data set [3] is 162 µM (≈ 115 µg/mL).
Take `CCc1cccc(CC)c1NC(=O)c1ccn(-c2nc(Nc3ccc(N4CCN(CC(=O)N(C)C)CC4)cc3OC)nc3[nH]ccc23)c1`: the IC50 in the data set on CAL-51 stood at 10 nM; in data set [1], 1 nM. The solubility kinetic at 24 h, 200 µM in data set [3] turned out to be 0.5 µM (≈ 0.325 µg/mL).
Take `CCc1cccc(CC)c1N1CCn2cc(-c3nc(Nc4ccc(N5CCC(O)(CN6CCN(C)CC6)CC5)cc4OC)nc4[nH]ccc34)cc2C1=O`: the IC50 is 8 nM in the data set on CAL-51, more than 5000 nM at Cytochrome P450 3A4 and 2.8 nM in data set [1]. Besides, in data set [2], the clearance amounted to 15 mL/min/kg. The solubility kinetic at 24 h, 200 µM in data set [3] worked out at 150 µM (≈ 108 µg/mL).
On the same counts, the results for `CCc1cccc(CC)c1NC(=O)c1ccn(-c2nc(Nc3ccc(N4CCC(N5CCN(C)CC5)CC4)cc3OC)nc3[nH]ccc23)c1` are 6 nM, 2000 nM, 2 nM, 68 mL/min/kg and 53 µM (≈ 35.1 µg/mL).
With `CCc1cccc(CC)c1N1CCn2cc(-c3nc(Nc4ccc(N5CCN(CC(=O)N(C)C)CC5)cc4OC)nc4[nH]ccc34)cc2C1=O`, the figures for the IC50 (in the data set on CAL-51; in data set [1]) were 11 nM and 9 nM, respectively. The clearance in data set [2] stood at 23 mL/min/kg. In addition, in data set [3], the solubility kinetic at 24 h, 200 µM came out at 1.4 µM (≈ 0.946 µg/mL).
Consider `CCc1cccc(CC)c1NC(=O)c1cc(-c2nc(Nc3ccc(N4CCC(C(=O)N5CCN(C)CC5)CC4)cc3OC)nc3[nH]ccc23)n(C)n1`, for which the figures for the IC50 (in the data set on CAL-51; at Cytochrome P450 3A4; in data set [1]) were 17 nM, more than 5000 nM and 4 nM, respectively. In data set [2], this molecule had a clearance of 19 mL/min/kg. The solubility kinetic at 24 h, 200 µM in data set [3] was 2 µM (≈ 1.41 µg/mL).
On the same counts, the results for `CCc1cccc(CC)c1N1CCn2cc(-c3nc(Nc4ccc(N5CCC(C(=O)N6CCN(C)CC6)CC5)cc4OC)nc4[nH]ccc34)cc2C1=O` are 5 nM, more than 5000 nM, 5.6 nM, 1.7 mL/min/kg and 0.8 µM (≈ 0.573 µg/mL).
On to `CCc1cccc(CC)c1NC(=O)c1ccn(-c2nc(Nc3ccc(N4CCC(O)(CN5CCN(C)CC5)CC4)cc3OC)nc3[nH]ccc23)c1`, for which the values for the IC50 (with CAL-51; on Cytochrome P450 3A4; in data set [1]) were 4 nM, 1200 nM and 1 nM, respectively. The solubility kinetic at 24 h, 200 µM in data set [3] was determined as 37 µM (≈ 25.6 µg/mL).
On to `CCc1cccc(CC)c1NC(=O)c1ccn(-c2nc(Nc3ccc(N4CCC(C(=O)N5CCN(C)CC5)CC4)cc3OC)nc3[nH]ccc23)c1`, for which the IC50 in the data set with CAL-51 turned out to be 10 nM; on Cytochrome P450 3A4, 3100 nM; in data set [1], 2 nM. The clearance in data set [2] stood at 22 mL/min/kg.
For the molecule `CCc1cccc(CC)c1N1CCn2cc(-c3nc(Nc4ccc(N5CCC(N6CCN(C)CC6)CC5)cc4OC)nc4[nH]ccc34)cc2C1=O`, the IC50 with CAL-51 is 9 nM; on Cytochrome P450 3A4, more than 5000 nM; in data set [1], 4 nM. In addition, the clearance in data set [2] was determined as 52 mL/min/kg. Further, in data set [3], the solubility kinetic at 24 h, 200 µM amounted to 6 µM (≈ 4.13 µg/mL).
Consider `CCc1cccc(CC)c1NC(=O)c1ccn(-c2nc(Nc3ccc(N4CCC(O)(C(=O)N5CCN(C)CC5)CC4)cc3OC)nc3[nH]ccc23)c1`, for which the IC50 worked out at 10 nM in the data set on CAL-51, 1900 nM at Cytochrome P450 3A4 and 2 nM in data set [1]. In data set [3], the solubility kinetic at 24 h, 200 µM was determined as 1 µM (≈ 0.706 µg/mL).
Consider `CCc1cccc(CC)c1N1CCn2cc(-c3nc(Nc4ccc(N5CCC(O)(C(=O)N6CCN(C)CC6)CC5)cc4OC)nc4[nH]ccc34)cc2C1=O`, for which the IC50 with CAL-51 was 12 nM; at Cytochrome P450 3A4 it was more than 5000 nM; in data set [1], 7.5 nM. The clearance in data set [2] worked out at 20 mL/min/kg. In addition, the solubility kinetic at 24 h, 200 µM in data set [3] was determined as 2 µM (≈ 1.46 µg/mL).
As for `CCc1cccc(CC)c1NC(=O)c1cc(-c2nc(Nc3ccc(N4CCN(CC(=O)N(C)C)CC4)cc3OC)nc3[nH]ccc23)n(C)n1`, the figures for the IC50 (in the data set with CAL-51; in data set [1]) were 22 nM and 3 nM, respectively. Also, the clearance in data set [2] amounted to 20 mL/min/kg. Moreover, the solubility kinetic at 24 h, 200 µM in data set [3] turned out to be 3 µM (≈ 1.99 µg/mL).
As to `CCc1cccc(CC)c1NC(=O)c1cc(-c2nc(Nc3ccc(N4CCC(N5CCN(C)CC5)CC4)cc3OC)nc3[nH]ccc23)n(C)n1`, the IC50 in the data set with CAL-51 was 17 nM; at Cytochrome P450 3A4, more than 5000 nM; in data set [1], 6 nM. Moreover, the clearance in data set [2] was found to be 15 mL/min/kg. Besides, in data set [3], the solubility kinetic at 24 h, 200 µM came out at 18 µM (≈ 12.2 µg/mL).
For the molecule `CNC(=O)c1ccc(Nc2nc(OC3CCCC3)c3c(-c4ccc5nc(C)oc5c4)c[nH]c3n2)c(OC)c1`, the IC50 at Cytochrome P450 3A4 was 280 nM.
As for `CCc1cccc(CC)c1NC(=O)c1cc(-c2nc(Nc3ccc(N4CCC(O)(C(=O)N5CCN(C)CC5)CC4)cc3OC)nc3[nH]ccc23)n(C)n1`, the IC50 was 20 nM with CAL-51, more than 5000 nM at Cytochrome P450 3A4 and 3 nM in data set [1]. The same molecule yielded a clearance in data set [2] of 31 mL/min/kg. The solubility kinetic at 24 h, 200 µM in data set [3] came out at 5 µM (≈ 3.6 µg/mL).
Consider `CCc1cccc(CC)c1N1CCn2cc(-c3nc(Nc4ccc(N5CCC(C(=O)N(C)CCN(C)C)CC5)cc4OC)nc4[nH]ccc34)cc2C1=O`, for which the results for the IC50 (with CAL-51; at Cytochrome P450 3A4; in data set [1]) were 7 nM, 3900 nM and 5.3 nM, respectively. Also, the clearance in data set [2] worked out at 27 mL/min/kg. Moreover, the solubility kinetic at 24 h, 200 µM in data set [3] is 125 µM (≈ 89.7 µg/mL).
